Reference: patent US10800767B2, “Thyroid hormone receptor beta agonist compounds” (Terns, Inc., priority 2018, dated 2020)

Experiments:
[1] = biological target: TR beta-LBD (thyroid hormone receptor beta) (Homo sapiens (Human), UniProt P10828); test: LanthaScreen TR-FRET Thyroid Receptor beta Coactivator Assay (agonist screening); assay type: biochemical; conditions: for THRβ-Selectivity: THR beta over THR alpha, derived from T3-selectivity normalized data; for EC50: TR-FRET coactivator assay, TR beta-LBD 1.0 nM, 2 hour incubation, average of duplicate runs, read-out: EC50 THRβ-FRET
Procedure: (§1) Example B1: Time-Resolved Fluorescence Resonance Energy Transfer (TR-FRET) Assay for Thyroid Hormone Receptor Agonist Screening
(§2) LanthaScreen™ TR-FRET Thyroid Receptor alpha Coactivator Assay kit (ThermoFisher) and LanthaScreen™ TR-FRET Thyroid Receptor beta Coactivator Assay kit (ThermoFisher) were used for agonist compound screening. Compounds in DMSO were diluted using ECHO Liquid Handler (Labcyte Inc.) into 384 plates in 10-point 3-fold series in duplicate (5 micro M final top concentration). Buffer C (ThermoFisher) was added to each well before the 4× mixture of fluorescein-SCR2-2 coactivator (200 nM final concentration), Terbium-labeled anti-GST antibody (2 nM final concentration), and TR alpha-LBD (0.4 nM final concentration) or TR beta-LBD (1.0 nM final concentration) was added. After 2 hour incubation at room temperature in dark, the TR-FRET signal was measured on an EnVision plate reader (PerkinElmer) with excitation at 340 nm and dual emission readout at 495 and 520 nm with the delay time of 100 micro second and the integration time of 200 micro second. The ratio of emission signal at 520 and at 495 was used to calculate EC50 using GraphPad Prism (GraphPad Software). In every batch of compound screening, T3 (L-3,3′,5-Triiodothyronine sodium salt, >95%) (Calbiochem) was used as reference compound. The EC50 of T3 measured were within 3-fold of the reference value provided by the assay kit manufacturer (ThermoFisher Scientific). The Z′ factors measured in every batch of screening using T3 as high percent effect (HPE) control and 0.5% DMSO as zero percent effect (ZPE) control were in the range of 0.5 to 0.8. Compounds' THR-beta selectivity values are derived from T3-selectivity normalized data.

[2] = biological target: TR alpha-LBD (thyroid hormone receptor alpha) (Homo sapiens (Human), UniProt P10827); test: LanthaScreen TR-FRET Thyroid Receptor alpha Coactivator Assay (agonist screening); assay type: biochemical; conditions: TR alpha-LBD 0.4 nM, 2 hour incubation, average of duplicate runs, read-out: EC50 THRα-FRET
Procedure: as §1, §2

Chain of TR beta-LBD (thyroid hormone receptor beta) (P10828 217-461): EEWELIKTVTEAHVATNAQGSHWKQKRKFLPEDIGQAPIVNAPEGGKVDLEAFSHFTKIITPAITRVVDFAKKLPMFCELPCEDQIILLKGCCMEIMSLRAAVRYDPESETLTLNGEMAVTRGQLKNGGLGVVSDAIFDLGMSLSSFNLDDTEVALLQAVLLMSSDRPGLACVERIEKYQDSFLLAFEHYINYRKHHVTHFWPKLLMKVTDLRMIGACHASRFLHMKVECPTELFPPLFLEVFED
Chain of TR alpha-LBD (thyroid hormone receptor alpha) (P10827 other isoform, or with tags, fused parts or gaps del 1-162, other chains not shown): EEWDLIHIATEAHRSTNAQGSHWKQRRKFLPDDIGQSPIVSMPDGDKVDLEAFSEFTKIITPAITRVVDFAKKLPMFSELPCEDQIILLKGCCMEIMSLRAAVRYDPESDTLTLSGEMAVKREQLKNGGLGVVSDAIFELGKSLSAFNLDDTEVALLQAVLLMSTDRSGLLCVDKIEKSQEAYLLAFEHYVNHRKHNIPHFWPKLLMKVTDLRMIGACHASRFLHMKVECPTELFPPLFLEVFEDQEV

SMILES	THRβ-Selectivity [1]	EC50 [1] [µM]	EC50 [2] [µM]
CC(C)c1cc(Oc2c(Cl)cc(NC(=O)c3noc(=O)[nH]3)c3c2CCC3)nn(C)c1=O [Example 24, N-(6-chloro-7-((5-isopropyl-1-methyl-6-oxo-1,6-dihydropyridazin-3-yl)oxy)-2,3-dihydro-1H-inden-4-yl)-5-oxo-4,5-dihydro-1,2,4-oxadiazole-3-carboxamide]	39.5	0.188	2.05
O=C(Nc1cc(Cl)c(Oc2cc(C3CC3)c(=O)[nH]n2)c(Cl)c1)c1noc(=O)[nH]1 [Example 25, N-(3,5-dichloro-4-((5-cyclopropyl-6-oxo-1,6-dihydropyridazin-3-yl)oxy)phenyl)-5-oxo-4,5-dihydro-1,2,4-oxadiazole-3-carboxamide]	42.1	0.231	2.42
CC(C)(C)c1cc(Oc2c(Cl)cc(NC(=O)c3noc(=O)[nH]3)cc2Cl)n[nH]c1=O [Example 28, N-(4-((5-(tert-butyl)-6-oxo-1,6-dihydropyridazin-3-yl)oxy)-3,5-dichlorophenyl)-5-oxo-4,5-dihydro-1,2,4-oxadiazole-3-carboxamide]	67	0.286	4.26
CC(O)c1cc(Oc2c(Cl)cc(NC(=O)c3noc(=O)[nH]3)cc2Cl)n[nH]c1=O (stereo not drawn) [Example 29, N-(3,5-dichloro-4-((5-(1-hydroxyethyl)-6-oxo-1,6-dihydropyridazin-3-yl)oxy)phenyl)-5-oxo-4,5-dihydro-1,2,4-oxadiazole-3-carboxamide]	88.9	0.235	4.34
C[C@@H](O)c1cc(Oc2c(Cl)cc(NC(=O)c3noc(=O)[nH]3)cc2Cl)n[nH]c1=O [Example 29P1, (R)—N-(3,5-dichloro-4-((5-(1-hydroxyethyl)-6-oxo-1,6-dihydropyridazin-3-yl)oxy)phenyl)-5-oxo-4,5-dihydro-1,2,4-oxadiazole-3-carboxamide]	>10.4	2.64	> 5
C[C@H](O)c1cc(Oc2c(Cl)cc(NC(=O)c3noc(=O)[nH]3)cc2Cl)n[nH]c1=O [Example 29P2, (S)—N-(3,5-dichloro-4-((5-(1-hydroxyethyl)-6-oxo-1,6-dihydropyridazin-3-yl)oxy)phenyl)-5-oxo-4,5-dihydro-1,2,4-oxadiazole-3-carboxamide]	80.8	0.0913	1.76
Cc1cc(NC(=O)c2noc(=O)[nH]2)cc(C)c1Cc1cc(C(C)C)c(=O)[nH]n1 [Example 30, N-(4-((5-isopropyl-6-oxo-1,6-dihydropyridazin-3-yl)methyl)-3,5-dimethylphenyl)-5-oxo-4,5-dihydro-1,2,4-oxadiazole-3-carboxamide]	14.3	0.821	3.11
O=C(Nc1cc(Cl)c(Oc2cc(C34CC(C3)C4)c(=O)[nH]n2)c(Cl)c1)c1noc(=O)[nH]1 [Example 31, N-(4-((5-(bicyclo[1.1.1]pentan-1-yl)-6-oxo-1,6-dihydropyridazin-3-yl)oxy)-3,5-dichlorophenyl)-5-oxo-4,5-dihydro-1,2,4-oxadiazole-3-carboxamide]	>34.8	0.601	> 5
CC[C@@H](O)c1cc(Oc2c(Cl)cc(NC(=O)c3noc(=O)[nH]3)cc2Cl)n[nH]c1=O [Example 32P1, (R)—N-(3,5-dichloro-4-((5-(1-hydroxypropyl)-6-oxo-1,6-dihydropyridazin-3-yl)oxy)phenyl)-5-oxo-4,5-dihydro-1,2,4-oxadiazole-3-carboxamide]	27.9	0.451	4.23
CC(C)(O)c1cc(Oc2c(Cl)cc(NC(=O)c3noc(=O)[nH]3)cc2Cl)n[nH]c1=O [Example 33, N-(3,5-dichloro-4-((5-(2-hydroxypropan-2-yl)-6-oxo-1,6-dihydropyridazin-3-yl)oxy)phenyl)-5-oxo-4,5-dihydro-1,2,4-oxadiazole-3-carboxamide]	>84.3	0.212	> 5
CC(C)c1cc(Oc2c(Cl)cc(NC(=O)c3noc(=O)[nH]3)c(F)c2Cl)n[nH]c1=O [Example 34, N-(3,5-dichloro-2-fluoro-4-((5-isopropyl-6-oxo-1,6-dihydropyridazin-3-yl)oxy)phenyl)-5-oxo-4,5-dihydro-1,2,4-oxadiazole-3-carboxamide]	10.9	0.166	0.577
CC(CO)c1cc(Oc2c(Cl)cc(NC(=O)c3noc(=O)[nH]3)cc2Cl)nn(C)c1=O (stereo not drawn) [Example 35, N-(3,5-dichloro-4-((5-(1-hydroxypropan-2-yl)-1-methyl-6-oxo-1,6-dihydropyridazin-3-yl)oxy)phenyl)-5-oxo-4,5-dihydro-1,2,4-oxadiazole-3-carboxamide]	15.8	0.762	2.6
CC(CO)c1cc(Oc2c(Cl)cc(NC(=O)c3noc(=O)[nH]3)cc2Cl)n[nH]c1=O (stereo not drawn) [Example 36, N-(3,5-dichloro-4-((5-(1-hydroxypropan-2-yl)-6-oxo-1,6-dihydropyridazin-3-yl)oxy)phenyl)-5-oxo-4,5-dihydro-1,2,4-oxadiazole-3-carboxamide]	>15.7	0.469	> 5

Now those with a lower EC50 [1], led by results:

THRβ-Selectivity [1]	EC50 [1] [µM]	EC50 [2] [µM]	SMILES
44.6	0.0581	0.699	CC(C)c1cc(Oc2c(Cl)cc(NC(=O)c3noc(=O)[nH]3)c(F)c2Cl)nn(C)c1=O [Example 26, N-(3,5-dichloro-2-fluoro-4-((5-isopropyl-1-methyl-6-oxo-1,6-dihydropyridazin-3-yl)oxy)phenyl)-5-oxo-4,5-dihydro-1,2,4-oxadiazole-3-carboxamide]
21.5	0.0268	0.144	CC(C)c1cc(Oc2c(Cl)cc(NCc3noc(=O)[nH]3)c(F)c2Cl)nn(C)c1=O [Example 27, 3-(((3,5-dichloro-2-fluoro-4-((5-isopropyl-1-methyl-6-oxo-1,6-dihydropyridazin-3-yl)oxy)phenyl)amino)methyl)-1,2,4-oxadiazol-5(4H)-one]
77.9	0.0864	1.55	CCC(O)c1cc(Oc2c(Cl)cc(NC(=O)c3noc(=O)[nH]3)cc2Cl)n[nH]c1=O (stereo not drawn) [Example 32, N-(3,5-dichloro-4-((5-(1-hydroxypropyl)-6-oxo-1,6-dihydropyridazin-3-yl)oxy)phenyl)-5-oxo-4,5-dihydro-1,2,4-oxadiazole-3-carboxamide]
81	0.0433	1.15	CC[C@H](O)c1cc(Oc2c(Cl)cc(NC(=O)c3noc(=O)[nH]3)cc2Cl)n[nH]c1=O [Example 32P2, (S)—N-(3,5-dichloro-4-((5-(1-hydroxypropyl)-6-oxo-1,6-dihydropyridazin-3-yl)oxy)phenyl)-5-oxo-4,5-dihydro-1,2,4-oxadiazole-3-carboxamide]
15.5	0.0345	0.212	Cn1nc(Oc2c(Cl)cc(NC(=O)c3noc(=O)[nH]3)cc2Cl)cc(C(C)(C)O)c1=O [Example 37, N-(3,5-dichloro-4-((5-(2-hydroxypropan-2-yl)-1-methyl-6-oxo-1,6-dihydropyridazin-3-yl)oxy)phenyl)-5-oxo-4,5-dihydro-1,2,4-oxadiazole-3-carboxamide]
